Experiment in all cases: NCI tumour cell line growth inhibition, 48 h
Assay [1] has as its system COLO 205 colon.
The test system of assay [2] is OVCAR-5 ovarian.
Assay [3] relates to HOP-62 NSCLC.
The subject of assay [4] is NCI-H226 lung.
Assay [5] has as its system ACHN renal.
Assay [6] has as its system SW-620 colon.
In assay [7] the test system is M14 melanoma.
Assay [8] has as its system SR leukemia.
The test system of assay [9] is HCT-116 colon.
The test system of assay [10] is T-47D breast.

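Grown in 96-well plates, cells were treated for 48 hours with each compound at five concentrations. Insufficient inhibition: endpoint recorded as highest concentration tested. GI50 = concentration required for 50% inhibition of growth. At the TGI there is no net growth.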

As for `C=CCN=C1NC(=O)C(CC(=O)Nc2cccc(Cl)c2)S1` (stereo unspecified), the TGI in assay [1], in [2], in [3], in assay [4], in [5] and in [6] was more than 100 µM throughout. In [7], this compound returned a TGI of more than 100 µM.

Take `OCC1CC2C=CCC(C2)C1` (stereo unspecified): the TGI in assay [8], in assay [1], in [2], in assay [3], in assay [9] and in [4] was more than 100 µM in each case. The TGI in assay [5], in [6] and in assay [7] was more than 100 µM throughout.

For `O=C(N/C(=C\c1cccc([N+](=O)[O-])c1)c1nc2c3c(ccc2[nH]1)C(=O)c1ccccc1C3=O)c1ccccc1`, the TGI in [8] is more than 100 µM; in [2], 90.4 µM; in [3], more than 100 µM; in assay [9], more than 100 µM; in assay [4], more than 100 µM; in [5], more than 100 µM. The TGI in [6] and in [7] was more than 100 µM each time.

Take `CCCC[C@H](CCc1ccccc1)N(C(=O)OC)N1CCC[C@H]1COC`: the TGI in assay [8] was more than 100 µM; in [1], 30.8 µM; in assay [2] it was 32.4 µM; in assay [3], 40.4 µM; in [9], 28.2 µM; in [4], 36.2 µM. The TGI in [5] came out at 30.4 µM; in assay [6], 29.8 µM; in assay [7] it was 82.6 µM.

Take `CCCC(=O)Oc1ccc(/C=N/NC(N)=S)nc1`: the TGI in assay [8], in assay [1], in assay [2], in assay [3], in assay [9] and in [4] was more than 100 µM each time. Besides, the TGI in [5], in assay [6] and in assay [7] was more than 100 µM each time.

As to `CSc1ccc(Cc2cc(C(C)(C)C)cc(C(C)(C)C)c2O)cc1`, the TGI in assay [8] turned out to be 24.7 µM; in assay [2], 13.2 µM; in assay [3], 35 µM; in [9], 22.7 µM; in [5], 29 µM; in assay [6], 29.7 µM. The compound further came in with a TGI in assay [7] of 28.6 µM.

With `CCCCSC1CCSc2c1ccc1ccccc21` (stereo unspecified), the TGI in assay [8], in assay [1], in assay [2], in assay [3], in [9] and in [7] was more than 100 µM each time.

On to `Nc1ccc(C(=O)CC2(O)C(=O)Nc3ccccc32)cc1` (stereo unspecified), for which the TGI in [1], in [2], in assay [9], in [4], in [5] and in [6] was more than 100 µM throughout. The same compound displayed a TGI in assay [7] of more than 100 µM.

Take `COc1ccc(OC)c(-c2cc(-c3ccc(Cl)cc3)nn2-c2ccccc2)c1`: the GI50 was 4.34 µM in [8]; 88.4 µM in assay [2]; 33 µM in assay [4]; 46.2 µM in assay [5]; 17 µM in assay [6]; 14.8 µM in [7]. The TGI was more than 100 µM in [8]; more than 100 µM in [2]; more than 100 µM in [4]; more than 100 µM in assay [5]; 78.4 µM in assay [6]; 45.6 µM in assay [7].

`Clc1ccc(-c2nnc(-c3nn(-c4ccccc4)c4nc5ccccc5nc34)o2)cc1`: the TGI in assay [1], in [2], in [3], in assay [9], in assay [4] and in assay [5] was more than 100 µM throughout. The TGI in assay [6] and in assay [7] was more than 100 µM each time.

With `CC1CCCc2c1n[nH]c2CC1CC(=O)NC(=O)C1` (stereo unspecified), the TGI in [8], in assay [1], in assay [2], in [3], in assay [9] and in assay [4] was more than 100 µM in each case. The TGI in [5], in assay [6] and in [7] was more than 100 µM in each case.

Take `COC(=O)CCCCCOS(=O)(=O)c1ccc(C)cc1`: the TGI in assay [8], in assay [1], in assay [2], in assay [9], in [5] and in assay [6] was more than 100 µM in each case. Moreover, the TGI in assay [7] was more than 100 µM.

`COc1cccc(/C=C2\N=C(Cl)OC2=O)c1O`: the TGI in assay [8], in [1], in assay [2], in assay [3], in assay [9] and in [4] was more than 100 µM throughout. Moreover, the TGI in [5], in [6] and in [7] was more than 100 µM in each case.

Turning to `Cc1ccc(S(=O)(=O)NC(Cc2ccccc2)C(=O)CCl)cc1` (stereo unspecified), the TGI was 32.3 µM in assay [1]; 31.2 µM in assay [2]; 31 µM in [3]; 23.8 µM in [9]; 33.1 µM in assay [4]; 30.1 µM in [5]. Further, the TGI in [6] stood at 24.1 µM; in assay [7] it was 26.2 µM.

As for `O=C1CC=C2C3CC4N(CCC45c4ccccc4N1C25)C/C3=C\CO` (stereo unspecified), the TGI in [1], in assay [10], in assay [2], in assay [9], in [4] and in assay [5] was more than 100 µM in each case. The TGI in assay [6] is more than 100 µM.

`C=C1C2CC(OC(C)=O)C3(C)C(c4ccoc4)OC(=O)[C@@H](O)[C@]13OC1C[C@H](OC(C)=O)C(C)(C)[C@H](C(O)C(=O)OC)[C@]12C` (stereo partly specified): the TGI in assay [1], in [9], in [4], in assay [5], in [6] and in assay [7] was more than 100 µM in each case.

Regarding `CC1=NC(C)=C(/C(C)=N/NC(=O)c2ccccc2O)C(C)/C1=C(/C)NNC(=O)c1ccccc1O` (stereo unspecified), the TGI is 42.5 µM in assay [8]; 92.1 µM in assay [2]; more than 100 µM in assay [3]; 48.3 µM in assay [9]; 86.4 µM in assay [5]; more than 100 µM in [6]. In assay [7], this compound yielded a TGI of more than 100 µM.

For the compound `CC[C@H](C)[C@H](NC(=O)c1ncccn1)C(=O)N(C)[C@H](C[C@@H](OC(C)=O)c1nc(C(=O)N[C@@H](Cc2ccccc2)C[C@H](C)C(=O)OC)cs1)C(C)C`, the GI50 in assay [8] was 0.213 µM; in assay [1] it was 1.01 µM; in assay [2], 5.07 µM; in assay [3], 1.73 µM; in assay [9], 0.929 µM; in assay [4] it was 5.45 µM. For the same compound, the values for the GI50 in assay [5], in assay [6] and in [7] were 4.07 µM, 0.896 µM and 1.13 µM, respectively. The TGI in assay [8] is more than 25 µM; in [1] it was 4.97 µM; in [2], more than 25 µM; in assay [3], more than 25 µM; in assay [9], more than 25 µM; in assay [4] it was more than 25 µM. Also, the TGI in [5], in assay [6] and in assay [7] was more than 25 µM throughout.

With `CC(=O)O[C@H]1CC[C@@]2(C)C(=CC[C@H]3C(CC#N)[C@@](C)(C#N)CCC32)C1` (stereo partly specified), the TGI in assay [1], in assay [2], in assay [3], in assay [9], in assay [4] and in assay [5] was more than 100 µM throughout. Moreover, the TGI in assay [6] and in assay [7] was more than 100 µM in each case.

Consider `CSc1nc2c(nc(N)n2C2OC(CO)C(O)C(O)C2O)c(=O)[nH]1` (stereo unspecified), for which the TGI in assay [8], in assay [1], in assay [3], in assay [9], in assay [4] and in assay [5] was more than 100 µM throughout. The TGI in assay [6] and in [7] was more than 100 µM throughout.

Take `COc1nc(NC2OC(COC(C)=O)C(OC(C)=O)C(OC(C)=O)C2OC(C)=O)c(N=C(C)C(C)=O)c(=O)n1C` (stereo unspecified): the TGI in assay [1], in assay [2], in assay [3], in assay [9], in assay [4] and in [5] was more than 100 µM each time. Besides, the TGI in assay [6] and in [7] was more than 100 µM in each case.

Take `COc1ccc(/C=C/c2cc(OC)c(OC)c(OC)c2)cc1OC`: the TGI in assay [8], in assay [1], in assay [2], in assay [3], in assay [9] and in [4] was more than 100 µM each time. For the same compound, the TGI in assay [5], in assay [6] and in assay [7] was more than 100 µM throughout.

For the compound `CC(=O)OC1CC2C(C)(C)C(=O)C=C[C@]2(C)C2CCC3(C)C(c4ccoc4)C(=O)C4OC43[C@]12C` (stereo partly specified), the TGI came out at 39.4 µM in [8]; 34.2 µM in assay [1]; 60.9 µM in assay [2]; 57.9 µM in assay [3]; 26 µM in [9]; 32.7 µM in assay [4]. For the same compound, the TGI in assay [5] amounted to 85 µM; in assay [6], 42 µM; in [7], 39.5 µM.

As to `C/C(=N\NC(=O)c1ccccc1O)c1c(O)cc(C)oc1=O`, the TGI in assay [1], in assay [2], in assay [3], in assay [9], in [4] and in assay [5] was more than 100 µM throughout. Besides, the TGI in assay [6] and in assay [7] was more than 100 µM throughout.

On to `Cc1cc(C)c([I+]c2c(C)cc(C)cc2C)c(C)c1`, for which the GI50 was 0.342 µM in [1]; 0.406 µM in [10]; 0.781 µM in assay [2]; 0.841 µM in assay [3]; 0.348 µM in assay [9]; 0.505 µM in assay [4]. In addition, the GI50 is 1.17 µM in assay [5] and 0.44 µM in [7]. Moreover, the TGI was 1.3 µM in assay [1]; 2.19 µM in [10]; 2.09 µM in assay [2]; 2.16 µM in [3]; 1.35 µM in assay [9]; 1.92 µM in assay [4]. Besides, the TGI was 2.47 µM in assay [5] and 1.69 µM in assay [7].

Turning to `O=[N+]([O-])c1cc(I)cc(/C=N/NS(=O)(=O)c2ccc(F)cc2)c1O`, the TGI was 46.2 µM in assay [8]; 32.4 µM in assay [1]; more than 100 µM in assay [2]; 55.8 µM in assay [3]; 43.3 µM in assay [9]; 81.5 µM in assay [5]. Besides, the TGI in assay [6] is more than 100 µM; in assay [7] it was 82.3 µM.

Regarding `Cn1nc(-c2ccccc2)c2c(/C=C/c3ccc(F)cc3)onc2c1=O`, the TGI in assay [1], in assay [3], in [9], in assay [5], in [6] and in [7] was more than 100 µM each time.

On to `CCCCCCCCCCNC(=S)OC`, for which the TGI in assay [8] is 55.4 µM; in assay [3] it was more than 100 µM; in [9], more than 100 µM; in assay [5] it was more than 100 µM; in assay [6], more than 100 µM; in [7], more than 100 µM.

As for `Cn1c(=O)nc2n(-c3ccc(F)c(F)c3)c3ccccc3nc-2c1=O`, the TGI in assay [1] is 15.7 µM; in [2], 37.5 µM; in [3], more than 100 µM; in [9], 26.5 µM; in assay [4], more than 100 µM; in assay [5], 37.2 µM. In addition, the results for the TGI in assay [6] and in assay [7] were 20.3 µM and 45 µM, respectively.

For the compound `CC(=O)N(N=O)c1ccc(N(N=O)C(C)=O)cc1`, the TGI in assay [8], in assay [1], in [2], in assay [3], in assay [9] and in assay [4] was more than 100 µM each time. Further, the TGI in assay [5], in [6] and in assay [7] was more than 100 µM in each case.

Source of the values: PubChem BioAssay (NCI).
